This note sets out measurements from PMC6437697 (Journal of Medicinal Chemistry, 2019).

Test in all cases: KINOMEscan
What all share (type): binding
Common to all, as to settings: read-out: % control activity remaining

For one experiment, the target named is T1, MAPKAPK2 (Homo sapiens, UniProt P49137).
T1 construct: purchased Eurofins DiscoverX KINOMEscan

The target in the next experiment is T2, NEK1 (Homo sapiens, UniProt Q96PY6).
T2 construct: purchased Eurofins DiscoverX KINOMEscan
T2 sequence (Q96PY6 1-1258): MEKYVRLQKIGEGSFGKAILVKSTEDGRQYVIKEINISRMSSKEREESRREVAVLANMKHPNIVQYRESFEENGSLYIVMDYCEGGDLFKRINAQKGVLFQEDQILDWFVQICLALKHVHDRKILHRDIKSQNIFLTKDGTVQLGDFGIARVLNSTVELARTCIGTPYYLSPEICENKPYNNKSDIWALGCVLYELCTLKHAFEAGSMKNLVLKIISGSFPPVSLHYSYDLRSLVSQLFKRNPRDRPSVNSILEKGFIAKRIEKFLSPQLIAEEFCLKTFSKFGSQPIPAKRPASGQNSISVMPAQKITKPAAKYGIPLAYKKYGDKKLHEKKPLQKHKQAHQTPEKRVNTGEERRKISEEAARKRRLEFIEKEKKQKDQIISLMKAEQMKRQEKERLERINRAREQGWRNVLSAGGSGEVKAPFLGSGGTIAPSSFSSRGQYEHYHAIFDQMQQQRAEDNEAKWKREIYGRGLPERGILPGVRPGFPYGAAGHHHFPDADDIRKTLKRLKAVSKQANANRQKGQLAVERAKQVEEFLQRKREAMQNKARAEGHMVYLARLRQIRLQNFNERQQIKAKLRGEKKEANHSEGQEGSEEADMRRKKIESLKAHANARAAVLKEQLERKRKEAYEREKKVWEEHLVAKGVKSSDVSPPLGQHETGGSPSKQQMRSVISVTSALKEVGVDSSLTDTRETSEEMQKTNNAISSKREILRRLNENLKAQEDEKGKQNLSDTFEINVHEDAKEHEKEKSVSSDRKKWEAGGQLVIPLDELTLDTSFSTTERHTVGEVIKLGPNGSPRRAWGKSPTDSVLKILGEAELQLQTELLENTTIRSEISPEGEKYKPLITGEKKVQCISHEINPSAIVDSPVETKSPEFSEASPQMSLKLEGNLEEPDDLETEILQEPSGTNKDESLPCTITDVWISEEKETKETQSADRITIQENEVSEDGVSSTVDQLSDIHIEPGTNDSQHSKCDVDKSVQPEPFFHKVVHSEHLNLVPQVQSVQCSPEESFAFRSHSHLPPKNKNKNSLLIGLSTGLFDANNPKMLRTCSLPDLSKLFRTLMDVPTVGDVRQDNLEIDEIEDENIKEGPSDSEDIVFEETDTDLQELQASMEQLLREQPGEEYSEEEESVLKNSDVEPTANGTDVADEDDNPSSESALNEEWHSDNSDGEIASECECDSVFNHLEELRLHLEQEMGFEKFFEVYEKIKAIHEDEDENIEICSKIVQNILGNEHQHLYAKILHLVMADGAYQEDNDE

The target of another experiment is T3, PIP5K2B (Homo sapiens, UniProt P78356).
T3 construct: purchased Eurofins DiscoverX KINOMEscan
T3 sequence (P78356 1-416): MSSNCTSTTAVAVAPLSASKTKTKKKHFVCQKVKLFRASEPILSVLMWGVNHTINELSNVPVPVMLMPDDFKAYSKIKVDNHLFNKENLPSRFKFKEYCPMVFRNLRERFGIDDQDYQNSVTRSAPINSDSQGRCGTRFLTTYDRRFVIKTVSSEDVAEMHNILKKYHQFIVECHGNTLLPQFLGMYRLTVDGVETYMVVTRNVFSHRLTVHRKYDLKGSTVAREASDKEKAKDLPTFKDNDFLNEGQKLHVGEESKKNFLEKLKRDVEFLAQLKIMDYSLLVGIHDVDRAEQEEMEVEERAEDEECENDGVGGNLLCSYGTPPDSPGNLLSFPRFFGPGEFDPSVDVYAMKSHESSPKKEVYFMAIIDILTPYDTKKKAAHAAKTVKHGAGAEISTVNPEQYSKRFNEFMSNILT

A further experiment concerns the target T4, PRKD1 (Homo sapiens, UniProt Q15139).
T4 construct: purchased Eurofins DiscoverX KINOMEscan
T4 sequence (Q15139 1-912): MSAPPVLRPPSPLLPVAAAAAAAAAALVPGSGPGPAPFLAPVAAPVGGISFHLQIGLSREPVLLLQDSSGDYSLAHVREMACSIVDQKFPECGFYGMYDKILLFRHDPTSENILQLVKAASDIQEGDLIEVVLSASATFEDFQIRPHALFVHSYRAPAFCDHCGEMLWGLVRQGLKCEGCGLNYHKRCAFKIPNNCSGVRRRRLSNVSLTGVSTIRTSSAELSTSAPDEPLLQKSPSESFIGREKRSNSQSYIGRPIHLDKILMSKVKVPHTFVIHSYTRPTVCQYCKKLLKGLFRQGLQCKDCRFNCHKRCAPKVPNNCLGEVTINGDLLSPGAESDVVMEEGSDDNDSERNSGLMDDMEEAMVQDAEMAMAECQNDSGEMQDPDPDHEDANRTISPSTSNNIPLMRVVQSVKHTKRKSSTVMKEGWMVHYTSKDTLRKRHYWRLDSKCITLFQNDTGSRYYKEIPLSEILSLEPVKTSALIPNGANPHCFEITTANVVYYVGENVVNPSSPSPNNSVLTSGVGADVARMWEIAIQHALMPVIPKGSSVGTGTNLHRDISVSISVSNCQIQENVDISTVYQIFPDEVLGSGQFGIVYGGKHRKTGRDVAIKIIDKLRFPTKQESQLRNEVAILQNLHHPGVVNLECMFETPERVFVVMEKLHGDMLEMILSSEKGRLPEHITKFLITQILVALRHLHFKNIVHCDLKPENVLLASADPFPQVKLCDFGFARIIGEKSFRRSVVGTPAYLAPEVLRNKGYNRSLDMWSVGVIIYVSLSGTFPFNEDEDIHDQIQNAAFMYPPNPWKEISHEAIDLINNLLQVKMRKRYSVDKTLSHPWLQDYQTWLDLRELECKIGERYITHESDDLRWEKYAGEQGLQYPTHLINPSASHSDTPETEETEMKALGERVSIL

The next experiment addresses T5, ALK(L1196M) (Homo sapiens, UniProt Q9UM73, L1196M).
T5 construct: purchased Eurofins DiscoverX KINOMEscan

T1 sequence (P49137 whole entry): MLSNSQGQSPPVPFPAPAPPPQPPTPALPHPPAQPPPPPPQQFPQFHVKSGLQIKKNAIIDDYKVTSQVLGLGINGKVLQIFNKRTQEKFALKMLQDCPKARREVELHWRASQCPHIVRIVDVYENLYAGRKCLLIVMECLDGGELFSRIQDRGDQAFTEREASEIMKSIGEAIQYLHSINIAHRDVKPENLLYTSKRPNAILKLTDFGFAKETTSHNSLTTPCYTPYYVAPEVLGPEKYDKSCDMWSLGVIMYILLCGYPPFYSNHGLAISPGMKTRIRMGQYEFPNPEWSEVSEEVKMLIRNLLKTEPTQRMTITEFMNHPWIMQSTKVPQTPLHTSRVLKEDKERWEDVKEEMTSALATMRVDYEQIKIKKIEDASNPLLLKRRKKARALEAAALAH
T5 sequence (Q9UM73 19-1620 L1196M): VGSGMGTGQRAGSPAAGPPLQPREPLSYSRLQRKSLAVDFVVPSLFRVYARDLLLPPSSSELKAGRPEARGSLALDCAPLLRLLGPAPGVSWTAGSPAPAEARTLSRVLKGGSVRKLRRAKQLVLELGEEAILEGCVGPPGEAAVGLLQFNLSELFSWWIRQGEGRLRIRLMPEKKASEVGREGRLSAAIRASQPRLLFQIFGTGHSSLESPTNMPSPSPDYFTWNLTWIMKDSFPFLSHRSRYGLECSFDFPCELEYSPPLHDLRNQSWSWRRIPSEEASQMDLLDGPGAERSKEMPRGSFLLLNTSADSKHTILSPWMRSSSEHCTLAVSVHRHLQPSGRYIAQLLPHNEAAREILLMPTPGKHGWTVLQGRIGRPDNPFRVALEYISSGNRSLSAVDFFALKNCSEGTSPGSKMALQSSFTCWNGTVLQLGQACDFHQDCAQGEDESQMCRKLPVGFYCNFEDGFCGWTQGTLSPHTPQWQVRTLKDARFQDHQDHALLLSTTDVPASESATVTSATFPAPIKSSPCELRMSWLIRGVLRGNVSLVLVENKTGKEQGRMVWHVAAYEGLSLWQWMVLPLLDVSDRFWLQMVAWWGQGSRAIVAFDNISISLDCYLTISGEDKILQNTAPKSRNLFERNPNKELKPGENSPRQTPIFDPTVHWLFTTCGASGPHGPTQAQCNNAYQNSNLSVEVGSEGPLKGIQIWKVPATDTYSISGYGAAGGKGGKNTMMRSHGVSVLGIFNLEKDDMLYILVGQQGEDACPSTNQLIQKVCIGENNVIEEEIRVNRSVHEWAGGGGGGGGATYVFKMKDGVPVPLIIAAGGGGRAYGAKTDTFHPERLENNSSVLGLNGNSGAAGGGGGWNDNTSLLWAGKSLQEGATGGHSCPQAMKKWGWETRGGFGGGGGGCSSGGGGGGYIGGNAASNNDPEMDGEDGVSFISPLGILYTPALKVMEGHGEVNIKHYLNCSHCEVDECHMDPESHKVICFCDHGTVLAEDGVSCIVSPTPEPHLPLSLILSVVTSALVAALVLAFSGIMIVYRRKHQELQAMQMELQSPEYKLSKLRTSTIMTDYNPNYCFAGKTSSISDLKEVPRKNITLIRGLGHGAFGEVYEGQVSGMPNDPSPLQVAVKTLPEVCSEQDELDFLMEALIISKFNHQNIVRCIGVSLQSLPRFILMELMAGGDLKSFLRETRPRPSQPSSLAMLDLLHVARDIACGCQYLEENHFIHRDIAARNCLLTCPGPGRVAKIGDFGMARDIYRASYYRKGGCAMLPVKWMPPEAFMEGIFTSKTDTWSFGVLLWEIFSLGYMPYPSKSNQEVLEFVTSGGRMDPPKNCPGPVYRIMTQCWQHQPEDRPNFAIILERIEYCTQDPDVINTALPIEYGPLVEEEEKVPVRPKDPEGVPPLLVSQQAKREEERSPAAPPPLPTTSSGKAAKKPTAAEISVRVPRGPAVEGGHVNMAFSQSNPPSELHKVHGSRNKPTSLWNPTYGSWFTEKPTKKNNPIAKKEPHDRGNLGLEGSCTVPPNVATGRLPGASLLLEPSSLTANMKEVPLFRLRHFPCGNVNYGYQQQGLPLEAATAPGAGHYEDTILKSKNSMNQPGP

For the compound `Clc1cc(NCC2CC2)c2ncc(-c3ccc4[nH]ncc4c3)n2n1` [compound 2, 6-Chloro-N-(cyclopropylmethyl)-3-(1H-indazol-5-yl)imidazo[1,2-b]pyridazin-8-amine], the remaining binding at 1 µM at MAPKAPK2 is 92%; at NEK1 it was 84%; at PIP5K2B, 78%; at PRKD1, 100%; at ALK(L1196M), 77%.
On to `O=C(CN1CCOCC1)N[C@H]1CC[C@H](Nc2cc(Cl)nn3c(-c4ccc5[nH]ncc5c4)cnc23)CC1` [compound 26], for which the remaining binding at 1 µM turned out to be 100% on MAPKAPK2; 92% at NEK1; 87% at PIP5K2B; 98% at PRKD1; 90% on ALK(L1196M).
As for `CN1CCC(CNc2cc(Cl)nn3c(-c4cc5nc(Nc6ccccc6)[nH]c5cc4F)cnc23)CC1` [compound 31, 6-Chloro-3-(6-fluoro-2-(phenylamino)-1H-benzo[d]imidazol-5-yl)-N-((1-methylpiperidin-4-yl)methyl)imidazo[1,2-b]pyridazin-8-amine], the remaining binding at 1 µM on MAPKAPK2 was determined as 100%; at NEK1 it was 96%; on PIP5K2B, 81%; on PRKD1, 99%; on ALK(L1196M), 94%.
